The values that follow come from ChEMBL document CHEMBL1201862, “PubChem BioAssay data set” (2004).

Broadly, the GI50 is the concentration that inhibits growth by half.

Each structure is given as a SMILES string.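 Cultured in 96-well plates, cells were exposed to test compound for 48 hours across five concentrations. Abbreviation: GI50, concentration required for 50% inhibition of growth.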 Calls of active or inactive are those of the source. Cut-off read from the data, not from the text of the source: active = GI50 up to about 1.1 µM and inactive = higher.

Common to all, as to assay: DTP human tumour cell line panel, 48 h
The test system of experiment [1] is SNB-75.
In experiment [2] the test system is BT-549.
Experiment [3] relates to OVCAR-3.
For experiment [4], the system named is RXF 393.
Experiment [5] deals with PC-3.
In experiment [6] the test system is OVCAR-5.
For experiment [7], the system named is MCF7.
Experiment [8] deals with A549.
Experiment [9] deals with HOP-92.
For experiment [10], the system named is LOX IMVI.
Experiment [11] has as its system HCC 2998.
Experiment [12] has as its system CAKI-1.
Experiment [13] deals with M14.
Experiment [14] has as its system U-251.
For experiment [15], the system named is Hs-578T.
In experiment [16] the test system is NCI-H460.
Experiment [17] deals with SK-MEL-2.
In experiment [18] the test system is EKVX.
Experiment [19] has as its system HCT-15.
In experiment [20] the test system is DMS-273.

As for `O=c1[nH]c(C23CC4CC(CC(C4)C2)C3)cc2c1c(=O)oc1ccccc12`, the GI50 in experiment [1] was 2.53 µM (inactive); in experiment [2], 11.2 µM (inactive); in experiment [3], 4.42 µM (inactive); in experiment [4], 2.35 µM (inactive); in [5], 3.27 µM (inactive); in experiment [6], 4.82 µM (inactive). Besides, the GI50 in [7] was 6 µM (inactive); in experiment [8] it was 2.83 µM (inactive); in [9] it was 1.04 µM (active); in [10] it was 2.95 µM (inactive); in experiment [11] it was 5.31 µM (inactive); in experiment [12], 1.86 µM (inactive). For the same compound, the GI50 in experiment [13] is 8.65 µM (inactive); in experiment [14], 2.53 µM (inactive); in experiment [15], 1.1 µM (active); in experiment [16], 2.62 µM (inactive); in experiment [17], 13.8 µM (inactive); in experiment [18], 0.32 µM (active). In [19], this compound showed a concentration for 50% growth inhibition (GI50) of 13.8 µM.

On to `COC(=O)C1=C(C)N(NC(N)=O)C2(N)N(NC(N)=O)C(C)=C(C(=O)OC)C12C(=O)OC` (centres undefined), for which the GI50 is > 100 µM (inactive) in experiment [20]; > 10 µM (inactive) in experiment [3]; > 100 µM (inactive) in experiment [6]; > 100 µM (inactive) in [8]; > 100 µM (inactive) in [9]; > 100 µM (inactive) in [10]. The GI50 in [11], in experiment [12], in experiment [13], in [14], in experiment [16] and in experiment [17] was > 100 µM (inactive) throughout. The GI50 in experiment [18] is > 100 µM (inactive); in [19], greater than 100 µM.

For the compound `c1ccc(SC23C4C5C6C4C2C6C53)nc1` (centres undefined), the GI50 is > 77.4 µM (inactive) in [1]; > 100 µM (inactive) in [20]; > 100 µM (inactive) in experiment [3]; > 100 µM (inactive) in experiment [6]; > 100 µM (inactive) in [8]; > 100 µM (inactive) in experiment [9]. Further, the GI50 in experiment [10], in experiment [11], in experiment [12], in [13], in experiment [14] and in experiment [16] was > 100 µM (inactive) each time. Besides, the GI50 was > 100 µM (inactive) in experiment [17], > 100 µM (inactive) in experiment [18] and greater than 100 µM in [19].

In the case of `O=C(CC(=O)c1cccc2ccccc12)C(=O)NC1C2CC3CC(C2)CC1C3` (centres undefined), the GI50 in experiment [20] was > 100 µM (inactive); in experiment [3], > 100 µM (inactive); in experiment [6], > 100 µM (inactive); in [8], > 100 µM (inactive); in [9], 34.4 µM (inactive); in experiment [10] it was > 100 µM (inactive). Moreover, the GI50 in experiment [11], in experiment [12], in [13], in experiment [14], in experiment [16] and in [18] was > 100 µM (inactive) in each case. The compound also showed a concentration for 50% growth inhibition (GI50) in experiment [19] greater than 100 µM.

On to `CCOc1cc2c(cc1OC(C)=O)C(=O)CC[C@H]1C3CC[C@H](OC(C)=O)[C@@]3(C)CC[C@H]21` (some centres undefined), for which the GI50 in experiment [1], in experiment [2], in experiment [3], in experiment [4], in experiment [5] and in experiment [6] was > 100 µM (inactive) throughout. The GI50 in [7], in [8], in [9], in experiment [10], in [11] and in experiment [12] was > 100 µM (inactive) each time. Besides, the GI50 in experiment [13], in experiment [14], in [15], in [16], in experiment [17] and in experiment [18] was > 100 µM (inactive) throughout. The compound also came in with a GI50 in [19] greater than 100 µM.

For the compound `C=C1C(=O)OC2CC(C)C3CC(O)OC(OCC)C3(C)CC12` (centres undefined), the GI50 is 15.5 µM (inactive) in [1]; > 41.8 µM (inactive) in experiment [2]; 15.3 µM (inactive) in experiment [3]; 14.8 µM (inactive) in experiment [4]; 19.9 µM (inactive) in experiment [5]; 20.2 µM (inactive) in [6]. Further, the GI50 is 13.3 µM (inactive) in experiment [7]; 41.6 µM (inactive) in experiment [8]; 16 µM (inactive) in experiment [9]; 6.01 µM (inactive) in [10]; 16.8 µM (inactive) in experiment [11]; 17.8 µM (inactive) in experiment [12]. Besides, the GI50 is 14.8 µM (inactive) in experiment [13]; 17.1 µM (inactive) in experiment [14]; 23.1 µM (inactive) in [15]; 18.6 µM (inactive) in experiment [16]; 15.3 µM (inactive) in experiment [17]; 23.7 µM (inactive) in experiment [18]. In [19], this compound had a GI50 of 8.38 µM.

With `C[N+](C)([O-])CCCNc1c2ccccc2nc2cccc([N+](=O)[O-])c12`, the GI50 is 0.456 µM (active) in [1]; 0.703 µM (active) in experiment [2]; 0.308 µM (active) in [3]; 0.163 µM (active) in [4]; 0.219 µM (active) in experiment [5]; 0.355 µM (active) in experiment [6]. For the same compound, the GI50 in experiment [7] is 0.113 µM (active); in experiment [8], 0.175 µM (active); in experiment [9], 0.31 µM (active); in experiment [10], 0.51 µM (active); in [11], 0.164 µM (active); in [12], 1.72 µM (inactive). Besides, the GI50 in [13] was 0.258 µM (active); in experiment [14], 0.305 µM (active); in experiment [15] it was 0.938 µM (active); in experiment [16], 0.142 µM (active); in experiment [17], 0.214 µM (active); in [18] it was 0.28 µM (active). The compound also had a concentration for 50% growth inhibition (GI50) in experiment [19] of 0.457 µM.

As for `COc1ccc(C2C3=C(COC3=O)OC(C)(C)Oc3cc4c(cc32)OCO4)cc1OC` (centres undefined), the GI50 in experiment [1] is 13.2 µM (inactive); in [2] it was 32.3 µM (inactive); in [3], 33.2 µM (inactive); in experiment [4], 31.5 µM (inactive); in experiment [5], 28.1 µM (inactive); in experiment [6], > 77.8 µM (inactive). Moreover, the GI50 in experiment [7] is 40.1 µM (inactive); in [8], 36.8 µM (inactive); in experiment [9] it was 37.5 µM (inactive); in [10], 40.8 µM (inactive); in experiment [11], 78 µM (inactive); in experiment [12], 43.6 µM (inactive). The GI50 in experiment [13] is 28.2 µM (inactive); in experiment [14], 39.1 µM (inactive); in experiment [15] it was 31.6 µM (inactive); in [16], 37.1 µM (inactive); in [17], 34.4 µM (inactive); in [18], 28.5 µM (inactive). The GI50 in [19] was 38.5 µM.

With `COc1ccc(CNNC(=O)c2cc[n+]([BH2-]C#N)cc2)cc1OC`, the GI50 in experiment [1], in [2], in experiment [3], in [4], in [5] and in experiment [6] was > 100 µM (inactive) throughout. Besides, the GI50 in [7], in [8], in experiment [9], in experiment [10], in experiment [11] and in experiment [12] was > 100 µM (inactive) throughout. Also, the GI50 in experiment [13], in experiment [14], in experiment [15], in experiment [16], in [17] and in experiment [18] was > 100 µM (inactive) throughout. This compound returned a GI50 in experiment [19] greater than 100 µM.

On to `CC(=O)OCC1=C(C)C[C@H]([C@@H](COC(C)=O)C2CCC3C4C[C@H]5O[C@]56CC=CC(=O)[C@]6(C)C4CC[C@@]32C)OC1=O` (some centres undefined), for which the GI50 is 2.16 µM (inactive) in experiment [1]; 0.26 µM (active) in experiment [2]; 0.109 µM (active) in experiment [3]; 0.369 µM (active) in experiment [4]; 0.417 µM (active) in [5]; 1.23 µM (inactive) in experiment [6]. For the same compound, the GI50 is 0.00955 µM (active) in experiment [7]; 1.39 µM (inactive) in experiment [8]; 0.352 µM (active) in experiment [9]; 0.122 µM (active) in experiment [10]; 0.573 µM (active) in experiment [11]; 0.671 µM (active) in experiment [12]. Besides, the GI50 in experiment [13] is 0.188 µM (active); in [14] it was 0.329 µM (active); in experiment [15], 1 µM (active); in experiment [16], 0.929 µM (active); in experiment [17], 0.716 µM (active); in [18], 0.465 µM (active). In experiment [19], it took 0.083 µM to inhibit growth by half (GI50).

For `Cc1cc(/N=N/c2ccccc2C)ccc1N`, the GI50 in experiment [1] is 5.94 µM (inactive); in experiment [2] it was 10.6 µM (inactive); in experiment [3], 7.35 µM (inactive); in experiment [4] it was 6.82 µM (inactive); in [5] it was 11.1 µM (inactive); in [6], 17.9 µM (inactive). Also, the GI50 in experiment [7] is 4.06 µM (inactive); in [8], 4.32 µM (inactive); in experiment [9], 10.5 µM (inactive); in experiment [10] it was 11.4 µM (inactive); in experiment [11], 12.4 µM (inactive); in [12], 15.3 µM (inactive). In addition, the GI50 in [13] is 12.4 µM (inactive); in [14], 14.3 µM (inactive); in experiment [15], 15.7 µM (inactive); in experiment [16] it was 3.19 µM (inactive); in experiment [17] it was 15.6 µM (inactive); in [18], 15.5 µM (inactive). The same compound had a GI50 in experiment [19] of 12.1 µM.
